Starred links: 1 amine or outer side, 2 acyl side, 3 side chain; linkers in the order of their positions; H or OH if unused. Positions of bridges follow the written chain, without caps; N, C: chain ends. Non-standard residues stand in square brackets, D forms with d. Residues, ends and D or L forms follow the SMILES beside them. Groups on a side chain read outwards from the residue. Primed or numbered codes have the meaning given here. *: point of attachment. MeHseMe″ = (2S)-4-methoxy-2-(methylamino)butanoic acid (N-methyl-O-methyl-L-homoserine), COCC[C@@H](C(=O)[*:2])N(C)[*:1]; F4aao = 4-(carboxymethoxy)-L-phenylalanine, O=C([C@H](Cc1ccc(OCC(=O)[*:3])cc1)N[*:1])[*:2]; Phe(4-(1-Me-pyrazol-4-yl)) = Cn1cc(-c2ccc(C[C@H](N)C(=O)O)cc2)cn1; SulfoCy5″ = sulfo-Cyanine5 hexanoyl dye as amide on the lysine NZ; TMe = O-methyl-L-threonine, CO[C@H](C)[C@H](N[*:1])C(=O)[*:2]; NMeAla(isoquinolin-7-yl) = CN[C@@H](Cc1ccc2ccncc2c1)C(=O)O; DOTA = O=C(O)CN1CCN(CC(=O)O)CCN(CC(=O)*)CCN(CC(=O)O)CC1; Phe(4-CH2COOH) = N[C@@H](Cc1ccc(CC(=O)O)cc1)C(=O)O; 3Pal(6-Ph) = N[C@@H](Cc1ccc(-c2ccccc2)nc1)C(=O)O; Phe(4-COOH) = N[C@@H](Cc1ccc(C(=O)O)cc1)C(=O)O; Piperazinyl(4-CH2COOH) = O=C(O)CN1CCN(*)CC1; NMe2Nal = CN[C@@H](Cc1ccc2ccccc2c1)C(=O)O; X1 = CO[C@@H](O)[C@H](N[*:1])C(=O)[*:2]; AEF = NCCOc1ccc(C[C@H](N)C(=O)O)cc1; NMeI = CC[C@H](C)[C@H](NC)C(=O)O; NMeQ = CN[C@@H](CCC(N)=O)C(=O)O; NMehSer = CN[C@@H](CCO)C(=O)O; NMeK = CN[C@@H](CCCCN)C(=O)O; NMeC = CN[C@@H](CS)C(=O)O; Carboxymethyl = O=C(O)C*; NMeA = CN[C@@H](C)C(=O)O; CO = O=C([*:1])[*:2]
Each molecule was assayed against Human Glypican3-Fc (Homo sapiens, UniProt P51654) (assay: SPR binding to Glypican-3, Method B-3 (Glypican3-Fc captured on Protein A chip, 5-point dilution series)). Details: SPR method B-3.
Procedure: A Protein A sensor chip (Cytiva) was inserted into a Biacore T200 (Cytiva), priming was performed three times with a running buffer: HBS-P+, pH 7.4 (Cytiva), and equilibration was carried out at a flow rate of 30 μL/min. Glypican3-Fc was allowed to react for 60 seconds at a flow rate of 10 μL/min. After capturing human Glypican3-Fe, a peptide solution prepared to 10 mM in DMSO solution was diluted with a running buffer to a final concentration of 10 μM. After that, 5 serial dilution series (100 nM, 50 nM, 25 nM, 10 nM, 5 nM) of peptide solutions were prepared. Using the above samples, peptide kinetics for Glypican3 was obtained by SPR measurement. Kinetics evaluation of Glypican3 was performed by SPR measurements at a flow rate of 10 LL/min, setting the association time to 120 seconds and the disassociation time to 600 seconds.
The obtained data by Method B-1, Method B-2, Method B-3 and Method B-4 were analyzed by follow. Single Cycle Kinetics was used as the kinetics evaluation model, and curve fitting was performed using Biacore T200 Evaluation Software Version 3.0 (Cytiva).

For `CC[C@H](C)[C@@H]1NC(=O)[C@H]([C@H](O)OC)NC(=O)[C@H](Cc2ccc(C(=O)O)cc2)NC(=O)[C@H](CCC(N)=O)N(C)C(=O)[C@H](CC(=O)O)NC(=O)[C@H](CCOC)N(C)C(=O)[C@H](CCCCNC(=O)N2CCN(CC(=O)O)CC2)N(C)C(=O)CSC[C@@H](C(N)=O)N(C)C(=O)[C@H](Cc2ccc(-c3ccccc3)nc2)NC(=O)CNC(=O)[C@H](Cc2ccc3ccncc3c2)N(C)C(=O)[C@H](Cc2ccc(O)cc2)NC1=O` [Conjugate 2-25] ({CH2CO}-[NMeK]([CO-Piperazinyl(4-CH2COOH)])[NMehSer](Me)D[NMeQ][Phe(4-COOH)][X1]IY[NMeAla(isoquinolin-7-yl)]G[3Pal(6-Ph)][NMeC]-NH2; thioether N-12), which Kd is on record?
Its Kd is 6600 pM.

Which Kd does the source give for `CC[C@H](C)[C@@H]1NC(=O)[C@H](Cc2ccc(C(=O)O)cc2)NC(=O)[C@H](CCC(N)=O)N(C)C(=O)[C@H](CCC(N)=O)NC(=O)[C@H]([C@@H](C)CC)N(C)C(=O)[C@H](CCCCN)N(C)C(=O)CSC[C@@H](C(N)=O)N(C)C(=O)[C@H](Cc2ccc(-c3cnn(C)c3)cc2)NC(=O)CNC(=O)[C@H](Cc2ccc3ccccc3c2)N(C)C(=O)[C@H](Cc2ccc(C(=O)O)cc2)NC(=O)[C@H]([C@@H](C)CC)NC1=O` [Conjugate 2-46] ({CH2CO}-[NMeK][NMeI]Q[NMeQ][Phe(4-COOH)]II[Phe(4-COOH)][NMe2Nal]G[Phe(4-(1-Me-pyrazol-4-yl))][NMeC]-NH2; thioether N-12) here?
The Kd was 200 pM.

For `CC[C@H](C)[C@@H]1NC(=O)[C@H]([C@@H](C)OC)NC(=O)[C@H](Cc2ccc(C(=O)O)cc2)NC(=O)[C@H](CCC(N)=O)N(C)C(=O)[C@H](CC(=O)O)NC(=O)[C@H](CCOC)N(C)C(=O)[C@H](C)N(C)C(=O)CSC[C@@H](C(N)=O)N(C)C(=O)[C@H](Cc2ccc(-c3ccccc3)nc2)NC(=O)CNC(=O)[C@H](Cc2ccc3ccccc3c2)N(C)C(=O)[C@H](Cc2ccc(OCCN)cc2)NC1=O` [Conjugate 2-28] ({CH2CO}-[NMeA][NMehSer](Me)D[NMeQ][Phe(4-COOH)]T(Me)I[AEF][NMe2Nal]G[3Pal(6-Ph)][NMeC]-NH2; thioether N-12), which Kd is on record?
The Kd was 300 pM.

For `CC[C@H](C)[C@@H]1NC(=O)[C@H](Cc2ccc(C(=O)O)cc2)NC(=O)[C@H](CCC(N)=O)N(C)C(=O)[C@H](CC(=O)O)NC(=O)[C@H]([C@@H](C)CC)N(C)C(=O)[C@H](CCCCNC(C)=O)N(C)C(=O)CSC[C@@H](C(N)=O)N(C)C(=O)[C@H](Cc2ccc(-c3ccccc3)nc2)NC(=O)CNC(=O)[C@H](Cc2ccc3ccncc3c2)N(C)C(=O)[C@H](Cc2ccc(O)cc2)NC(=O)[C@H]([C@@H](C)CC)NC1=O` [Conjugate 2-4] ({CH2CO}-[NMeK](Ac)[NMeI]D[NMeQ][Phe(4-COOH)]IIY[NMeAla(isoquinolin-7-yl)]G[3Pal(6-Ph)][NMeC]-NH2; thioether N-12), which Kd is on record?
The Kd was 300 pM.

With `CC[C@H](C)[C@@H]1NC(=O)[C@H]([C@@H](C)OC)NC(=O)[C@H](Cc2ccc(C(=O)O)cc2)NC(=O)[C@H](CNC(=O)N2CCN(CC(=O)O)CC2)N(C)C(=O)[C@H](CC(=O)O)NC(=O)[C@H](CCOC)N(C)C(=O)[C@H](CCCCNC(=O)N2CCN(CC(=O)O)CC2)N(C)C(=O)SCC[C@@H](C(N)=O)N(C)C(=O)[C@H](Cc2ccc(-c3ccccc3)nc2)NC(=O)CNC(=O)[C@H](Cc2ccc3ccncc3c2)N(C)C(=O)[C@H](Cc2ccc(OCCN)cc2)NC1=O` [Conjugate 2-38] as the molecule, how does the Kd read?
The Kd was 1800 pM.

With `CC[C@H](C)[C@@H]1NC(=O)[C@H](Cc2ccc(C(=O)O)cc2)NC(=O)[C@H](CCC(N)=O)N(C)C(=O)[C@H](CC(=O)O)NC(=O)[C@H](CCOC)N(C)C(=O)[C@H](CCCCN)N(C)C(=O)CSC[C@@H](C(N)=O)N(C)C(=O)[C@H](Cc2ccc(-c3cnn(C)c3)cc2)NC(=O)CNC(=O)[C@H](Cc2ccc3ccccc3c2)N(C)C(=O)[C@H](Cc2ccc(CC(=O)O)cc2)NC(=O)[C@H]([C@@H](C)CC)NC1=O` [Conjugate 2-48] ({CH2CO}-[NMeK][NMehSer](Me)D[NMeQ][Phe(4-COOH)]II[Phe(4-CH2COOH)][NMe2Nal]G[Phe(4-(1-Me-pyrazol-4-yl))][NMeC]-NH2; thioether N-12) as the molecule, how does the Kd read?
Its Kd is 500 pM.

With `CC[C@H](C)[C@@H]1NC(=O)[C@H]([C@@H](C)OC)NC(=O)[C@H](Cc2ccc(C(=O)O)cc2)NC(=O)[C@H](CCC(N)=O)N(C)C(=O)[C@H](CC(=O)O)NC(=O)[C@H]([C@@H](C)CC)N(C)C(=O)[C@H](CCCCN)N(C)C(=O)CSC[C@@H](C(N)=O)N(C)C(=O)[C@H](Cc2ccc(-c3ccccc3)nc2)NC(=O)CNC(=O)[C@H](Cc2ccc3ccncc3c2)N(C)C(=O)[C@H](Cc2ccc(O)cc2)NC1=O` [Conjugate 2-60] ({CH2CO}-[NMeK][NMeI]D[NMeQ][Phe(4-COOH)]T(Me)IY[NMeAla(isoquinolin-7-yl)]G[3Pal(6-Ph)][NMeC]-NH2; thioether N-12) as the molecule, how does the Kd read?
Its Kd is 230 pM.

Which Kd does the source give for `CC[C@H](C)[C@@H]1NC(=O)[C@H]([C@@H](C)OC)NC(=O)[C@H](Cc2ccc(C(=O)O)cc2)NC(=O)[C@H](CCC(N)=O)N(C)C(=O)[C@H](CC(=O)O)NC(=O)[C@H](CCOC)N(C)C(=O)[C@H](CCCCNC(=O)CN2CCN(CC(=O)O)CCN(CC(=O)O)CCN(CC(=O)O)CC2)N(C)C(=O)CSC[C@@H](C(N)=O)N(C)C(=O)[C@H](Cc2ccc(-c3ccccc3)nc2)NC(=O)CNC(=O)[C@H](Cc2ccc3ccncc3c2)N(C)C(=O)[C@H](Cc2ccc(OCC(=O)O)cc2)NC1=O` [Lu-C-63] ({CH2CO}-[NMeK](DOTA)[NMehSer](Me)D[NMeQ][Phe(4-COOH)]T(Me)IY(Carboxymethyl)[NMeAla(isoquinolin-7-yl)]G[3Pal(6-Ph)][NMeC]-NH2; thioether N-12) here?
Its Kd is 1600 pM.

For `CC[C@H](C)[C@@H]1NC(=O)[C@H]([C@@H](C)OC)NC(=O)[C@H](Cc2ccc(NCC(=O)O)nc2)NC(=O)[C@H](CNC(=O)N2CCN(CC(=O)O)CC2)N(C)C(=O)[C@H](CC(=O)O)NC(=O)[C@H](CCCCNC(=O)N2CCN(CC(=O)O)CC2)N(C)C(=O)[C@H](CCCCN)N(C)C(=O)CSC[C@@H](C(N)=O)N(C)C(=O)[C@H](Cc2ccc(-c3ccccc3)nc2)NC(=O)CNC(=O)[C@H](Cc2ccc3ccncc3c2)N(C)C(=O)[C@H](Cc2ccc(OCC(=O)O)cc2)NC1=O` [Conjugate 2-30], which Kd is on record?
Its Kd is 6600 pM.

For `CC[C@H](C)[C@@H]1NC(=O)[C@H]([C@@H](C)OC)NC(=O)[C@H](Cc2ccc(C(=O)O)cc2)NC(=O)[C@H](CCC(N)=O)N(C)C(=O)[C@H](CC(=O)O)NC(=O)[C@H](CCOC)N(C)C(=O)[C@H](CCCCNC(=O)N2CCN(CC(=O)O)CC2)N(C)C(=O)CSC[C@@H](C(N)=O)N(C)C(=O)[C@H](Cc2ccc(-c3ccccc3)nc2)NC(=O)CNC(=O)[C@H](Cc2ccc3ccncc3c2)N(C)C(=O)[C@H](Cc2ccc(O)cc2)NC1=O` [Conjugate 2-24] ({CH2CO}-[NMeK]([CO-Piperazinyl(4-CH2COOH)])[NMehSer](Me)D[NMeQ][Phe(4-COOH)]T(Me)IY[NMeAla(isoquinolin-7-yl)]G[3Pal(6-Ph)][NMeC]-NH2; thioether N-12), which Kd is on record?
The Kd was 500 pM.

For `CC[C@H](C)[C@@H]1NC(=O)[C@H]([C@@H](C)OC)NC(=O)[C@H](Cc2ccc(C(=O)O)cc2)NC(=O)[C@H](CNC(=O)N2CCN(CC(=O)O)CC2)N(C)C(=O)[C@H](CC(=O)O)NC(=O)[C@H](CCCCNC(=O)N2CCN(CC(=O)O)CC2)N(C)C(=O)[C@H](CCCCN)N(C)C(=O)CSC[C@@H](C(N)=O)N(C)C(=O)[C@H](Cc2ccc(-c3ccccc3)nc2)NC(=O)CNC(=O)[C@H](Cc2ccc3ccncc3c2)N(C)C(=O)[C@H](Cc2ccc(OCC(=O)O)cc2)NC1=O` [Conjugate 2-29], which Kd is on record?
Its Kd is 1000 pM.

For `CC[C@H](C)[C@@H]1NC(=O)[C@H]([C@@H](C)OC)NC(=O)[C@H](Cc2ccc(C(=O)O)cc2)NC(=O)[C@H](CCC(N)=O)N(C)C(=O)[C@H](CC(=O)O)NC(=O)[C@H](CCOC)N(C)C(=O)[C@H](CCCCN)N(C)C(=O)CSC[C@@H](C(N)=O)N(C)C(=O)[C@H](Cc2ccc(-c3ccccc3)nc2)NC(=O)CNC(=O)[C@H](Cc2ccc3ccncc3c2)N(C)C(=O)[C@H](Cc2ccc(O)cc2)NC1=O` [Conjugate 1] ({CH2CO}-[NMeK][NMehSer](Me)D[NMeQ][Phe(4-COOH)]T(Me)IY[NMeAla(isoquinolin-7-yl)]G[3Pal(6-Ph)][NMeC]-NH2; thioether N-12), which Kd is on record?
The Kd was 200 pM.

Each molecule was assayed against T1, Human Glypican3-Fc (ACRO Biosystems, GP3-H5258) (human, UniProt P51654 25-559) (assay: SPR (Biacore T200), Method B-3: Glypican3-Fc captured on Protein A chip, peptide as analyte). Details: not given.
T1 construct: Bought fusion protein, captured in Methods B-2, B-3 and B-4; Catalogue number is printed only in Method B-2; not shown: Fc part of the bought fusion
In short: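 Human Glypican3-Fc was captured on a Protein A chip (60 s, 10 μL/min) in HBS-P+ pH 7.4. The peptide was injected as analyte at a final 10 μM at 10 μL/min, with 120 s association and 600 s dissociation. Kinetics were fitted by single-cycle kinetics.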

How did the Kd turn out when {CH2CO}-[NMeA][MeHseMe″]D[NMeQ][Phe(4-COOH)][TMe]I[AEF][NMe2Nal]G[3Pal(6-Ph)][NMeC]-NH2 (thioether N-12; not fully specified (residue 8)) [Mod3] was run?
The Kd was 900 pM.

For {CH2CO}-[NMeK](SulfoCy5″)[NMeI]D[NMeQ][Phe(4-COOH)][TMe]I[F4aao][NMeAla(isoquinolin-7-yl)]G[3Pal(6-Ph)][NMeC]-NH2 (thioether N-12) [PLD-30], which Kd is on record?
The Kd was 1080 pM.

— patent US20260241049A1, “Radiopharmaceutical Compositions Targeting Glypican-3 and Uses Thereof” (RayzeBio, Inc., priority 2023, published 2026)
